Assay results taken from patent US20250250252A1, “PIPERIDINYLBENZONITRILE DERIVATIVES AS INHIBITORS OF GLUTAMINYL-PEPTIDE CYCLOTRANSFERASE AND GLUTAMINYL-PEPTIDE CYCLOTRANSFERASE LIKE PROTEIN” (Boehringer Ingelheim International GmbH, priority 2024, published 2025).
Like-named read-outs stand apart in the source and are kept apart here.

Columns and labels:
CACO-2 cells = experiment: Assay C: Permeability in CACO-2 cells; assay type: in vitro ADME; settings: pair comparison without/with 4-fluoropiperidyl
Procedure: (§1) Caco-2 cells (1-2×10^5 cells/1 cm^2 area) are seeded on filter inserts (Costar transwell polycarbonate or PET filters, 0.4 μm pore size) and cultured (DMEM) for 10 to 25 days. Compounds are dissolved in appropriate solvent (like DMSO, 1-20 mM stock solutions). […] The transport solution (TL) is applied to the apical or basolateral donor side for measuring A-B or B-A permeability (3 filter replicates), respectively. Samples are collected at the start and end of experiment from the donor and at various time intervals for up to 2 hours also from the receiver side for concentration measurement by HPLC-MS/MS or scintillation counting. Sampled receiver volumes are replaced with fresh receiver solution.
(§2) Efflux ratio (ER)=permeability B-A/permeability A-B

[1] = Assay C: Permeability in CACO-2 cells; assay type: in vitro ADME; settings: human; for efflux ratio: Caco-2, pH 7.2
Procedure: as §1, §2

[2] = test system: SIRPα signalling induced by Raji cells; experiment: Assay B: SIRPα signalling assay using Raji cells; assay type: cell-based; settings: Homo sapiens, read-out: Inhibition of SIRPα signalling induced by Raji cells: IC50
Procedure: Bioassay reagent 1 of the PathHunter Bioassay detection kit (DiscoverX 93-0001) was added to each well of the plate using a multichannel pipette followed by a 15 min incubation at room temperature. Afterwards bioassay reagent 2 was added followed by 60 min incubation at room temperature (incubation in the dark).
(§3) The analysis of the data was performed using the luminescence signal generated by betagalactosidase in the PathHunter reporter cell line. The luminescence measurement was done using a Pherastar Multi-Mode Reader.

[3] = test system: SIRPα signalling induced by A549 cells; experiment: Assay B: SIRPα signalling assay using A549 cells; assay type: cell-based; settings: Homo sapiens, read-out: Inhibition of SIRPα signalling induced by A549 cells: IC50
Procedure: Two cell types are independently used: the Raji cell line (lymphoblast-like human cell line derived from B lymphocytes from a Burkitt's lymphoma patient in 1963) and A549 cells (adenocarcinomic human alveolar basal epithelial cells).
Test compounds were dissolved in 100% DMSO and serially diluted into a white 384-well microtiter cell culture plate (PerkinElmer #60076780 in case of Raji assay; PDL-coated plates Greiner #781945 in case of A549 assay). 5000 Raji cells (ATCC #CC86) or 5000 A549 cells (ATCC #CCL-185) in Assay Complete Cell Plating reagent 30 (DiscoverX 93-0563R30B) were added per well. The assay plate was incubated for 48 h at 37° C., 95% humidity and 5% CO2. 15000 reporter cells (Jurkat PathHunter SIRPαV1, DiscoverX #93-1135C19) were added to each well, and the plate was incubated for 5 h at 37° C., 95% humidity and 5% CO2. Bioassay reagent 1 of the PathHunter Bioassay detection kit (DiscoverX 93-0001) was added to each well of the plate using a multichannel pipette followed by a 15 min incubation at room temperature. Afterwards bioassay reagent 2 was added followed by 60 min incubation at room temperature (incubation in the dark).
as §3, with “Reader. Dose-response curves & IC50 data were calculated with 4-parameter sigmoidal dose response formula.” for “Reader.”

CYP3A4 mRNA = experiment: Assay D: CYP induction screening assay in primary human hepatocytes; assay type: in vitro ADME; settings: 48 h
Procedure: Cryopreserved plateable human hepatocytes (single donor, BioIVT) were thawed and plated in Collagen-I coated 96-well-plates at a cell density of 0.07 million cells per well.
After a 6 h attachment period, the seeding medium was replaced by serum-free William's medium E supplemented with Matrigel (0.25 mg/ml) and allowed to recover overnight. 24 h post-seeding, serum-free Williams E medium containing the test compound at a final concentration of 10 μM and a final DMSO content of 0.1% and 0.1% DMSO (solvents treated control), respectively, was added to predefined wells. Exposure solutions were renewed after 24 h.
After 48 h of treatment in total, the effect of the test compounds on CYP3A4 mRNA expression was assessed using the QuantiGene Plex Gene Expression Assay. Hepatocytes were lysed and total RNA was extracted using the QuantiGene Sample Processing Kit according to the instructions of the manufacturer.
mRNA quantification was conducted using a customized QuantiGene Plex Panel to analyse CYP3A4 and the housekeeper genes RPL32, EIF4E2 and GUSB according to the instructions of the manufacturer and measured on a Luminex™ instrument. Signal was reported as median fluorescence intensity (MFI), which is proportional to the number of target RNA molecules present in the sample.
For calculation of CYP3A4 mRNA induction, the signal for CYP3A4 was normalized against the geometric mean of the signal obtained for the housekeeper genes for hepatocytes exposed to test compounds in relation to solvent-treated samples according to the following equation:
n-fold induction=(MFI CYP3A4 (treated)/Xgeo MFI (RPL32,EIF4E2,GUSB))/(MFI CYP3A4 (solvent control)/Xgeo MFI (RPL32,EIF4E2,GUSB))

murine hepatocytes = experiment: Assay E: Stability in murine hepatocytes; assay type: in vitro ADME, mouse; settings: 1 μM
Procedure: The metabolic degradation of the test compound is assayed in a murine hepatocyte suspension.
Murine hepatocytes (typically cryopreserved) are incubated in an appropriate buffer system (e.g. Dulbecco's modified eagle medium plus 3.5 μg glucagon/500 mL, 2.5 mg insulin/500 mL and 3.75 mg/500 mL hydrocortison) containing 5% species serum.
Following a (typically) 30 min preincubation in an incubator (37° C., 10% CO2) 5 μl of test compound solution (80 μM; from 2 mM in DMSO stock solution diluted 1:25 with medium) are added into 395 μl hepatocyte suspension (cell density in the range 0.25-5 Mio cells/mL, typically 1 Mio cells/mL; final concentration of test compound 1 μM, final DMSO concentration 0.05%).
The cells are incubated for six hours (incubator, orbital shaker) and samples (2 μl) are taken at 0, 0.5, 1, 2, 4 and 6 hours. Samples are transferred into acetonitrile and pelleted by centrifugation (5 min). The supernatant is transferred to a new 96-deepwell plate, evaporated under nitrogen and resuspended.
CLint is calculated as follows CL_[…]=Dose/AUC=(C0/CD)/(AUD+clast/k)×1000/60. C0: initial concentration in the incubation [μM], CD: cell density of vital cells [10e6cells/mL], AUD: area under the data [μM×h], clast: concentration of last data point [μM], k: slope of the regression line for parent decline [h−1].
The calculated in vitro hepatic intrinsic clearance can be scaled up to the intrinsic in vivo hepatic Clearance and used to predict hepatic in vivo blood clearance (CL) by the use of a liver model (well stirred model).
CL_[…]_INVIVO[ml/min/kg]=(CL_[…][μL/min/10e6cells]×hepatocellularity[10e6cells/g liver]×liver factor[g/kg bodyweight])/1000
CL[ml/min/kg]=CL_[…]_INVIVO[ml/min/kg]×hepatic blood flow[ml/min/kg]/(CL_[…]_INVIVO[ml/min/kg]+hepatic blood flow[ml/min/kg])
Hepatocellularity,mouse:120×10e6cells/g liver
Liver factor,mouse:55 g/kg bodyweight
Blood flow,mouse:90 ml/(min×kg)

[4] = pair comparison without/with 4-fluoropiperidyl, read-out: Efflux ratio (BA/AB)

| CACO2 Perm. (CACO-2 cells) | efflux ratio [1, 4] | Compound | other results |
| --- | --- | --- | --- |
| 2.5 10^−6 cm/sec |  | Cn1cnnc1C1CCN(c2c(C#N)cc(Cl)cc2-c2cnc3nn(C(C)(C)C)cc3c2)CC1 [Example 17 in EP 23161417.3] |  |
| 0.2 10^−6 cm/sec |  | Cn1cnnc1C1CCN(c2c(-c3cnc4nn(C(C)(C)C)cc4c3)ccc(C(F)(F)F)c2C#N)CC1 [Example 32 in EP 23161417.3] |  |
| 17.0 10^−6 cm/sec | 5.7 | Cn1cnnc1C1CCN(c2c(C#N)cc(F)cc2-c2cnc3nn(C(C)(C)C)c(C(F)(F)F)c3c2)CC1 |  |
| 0.5 10^−6 cm/sec |  | Cn1cnnc1C1CCN(c2c(C#N)cccc2-c2cnc3nn(C(C)(C)C)cc3c2)CC1 [Example 50 in EP 22216126.7] |  |
| 3.7 10^−6 cm/sec | 5.7 | Cn1cnnc1C1CCN(c2c(C#N)cc(C(F)(F)F)nc2-c2cnc3nn(C(C)(C)C)c(C(F)(F)F)c3c2)CC1 [Example 13 in EP 23189886.7] |  |
| 24.0 10^−6 cm/sec |  | Cn1cnnc1C1CCN(c2c(C#N)cc(F)cc2-c2ccc(F)nc2)CC1 [Example 130 in WO 2024/020517] |  |
| 1.0 10^−6 cm/sec | 36.4 | Cn1cnnc1C1CCN(c2c(C#N)cc(C(F)(F)F)nc2-c2cnc3nn(C(C)(C)C)c(Cl)c3c2)CC1 |  |
| 9.0 10^−6 cm/sec |  | Cn1cnnc1C1CCN(c2c(C#N)cc(C(F)(F)F)cc2-c2ccc(F)nc2)CC1 [Example 70 in WO 2024/020517] |  |
| 51.0 10^−6 cm/sec | 0.8 | Cn1cnnc1C1(F)CCN(c2c(C#N)cc(F)cc2-c2cnc3nn(C(C)(C)C)c(C(F)(F)F)c3c2)CC1 |  |

The remaining lines, values behind:

| Compound | CACO2 Perm. (CACO-2 cells) | efflux ratio [1, 4] | other results |
| --- | --- | --- | --- |
| Cn1cnnc1C1CCN(c2c(C#N)ccnc2-c2ccc(F)nc2)CC1 [Example 133 in WO 2024/020517] | 4.8 10^−6 cm/sec |  |  |
| Cn1cnnc1C1CCN(c2c(C#N)cc(Cl)nc2-c2ccc(F)nc2)CC1 [Example 18 in WO 2024/020517] | 23.0 10^−6 cm/sec | 3.3 |  |
| Cn1cnnc1C1(F)CCN(c2c(C#N)cc(Cl)cc2-c2cnc3nn(C(C)(C)C)cc3c2)CC1 [Example 19 in EP 23161417.3] | 18.0 10^−6 cm/sec |  |  |
| Cn1cnnc1C1(F)CCN(c2c(C#N)ccnc2-c2ccc(F)nc2)CC1 [Example 1 in EP 22188580.9] | 28.0 10^−6 cm/sec |  |  |
| Cn1cnnc1C1CCN(c2c(-c3ccc(F)nc3)ccnc2C#N)CC1 [Example 132 in WO 2024/020517] | 1.8 10^−6 cm/sec |  |  |
| Cn1cnnc1C1(F)CCN(c2c(C#N)cccc2-c2cnc3nn(C(C)(C)C)cc3c2)CC1 [Example 62 in EP 22216126.7] | 4.9 10^−6 cm/sec |  |  |
| Cn1cnnc1C1(F)CCN(c2c(C#N)cc(Cl)nc2-c2ccc(F)nc2)CC1 [Example 18 in EP 23161417.3] | 66.0 10^−6 cm/sec | 1 |  |
| Cn1cnnc1C1(F)CCN(c2c(C#N)cc(C(F)(F)F)nc2-c2cnc3nn(C(C)(C)C)c(Cl)c3c2)CC1 [Example 3 in EP 23189886.7] | 47.0 10^−6 cm/sec | 1 |  |
| Cn1cnnc1C1(F)CCN(c2c(C#N)cc(C(F)(F)F)nc2-c2cnc3nn(C(C)(C)C)c(C(F)(F)F)c3c2)CC1 [Example 4 in EP 23189886.7] | 99.5 10^−6 cm/sec | 0.6 |  |
| Cn1cnnc1C1(F)CCN(c2c(C#N)cc(F)cc2-c2ccc(F)nc2)CC1 [Example 6 in EP 23161417.3] | 44.0 10^−6 cm/sec |  |  |
| Cn1cnnc1C1(F)CCN(c2c(-c3ccc(F)nc3)ccnc2C#N)CC1 [Example 10 in EP 22188580.9] | 11.0 10^−6 cm/sec |  |  |
| Cn1cnnc1C1(F)CCN(c2c(C#N)cccc2-c2ccc(F)nc2)CC1 [Example 56 in EP 23161417.3] | 50.0 10^−6 cm/sec |  |  |
| Cn1cnnc1C1(F)CCN(c2c(C#N)cccc2-c2ccnnc2)CC1 [Example 52 in EP 22216126.7] | 15.0 10^−6 cm/sec |  |  |
| Cn1cncc1C1CCN(c2c(C#N)cccc2-c2ccc(F)nc2)CC1 [QP5038, reference compound] |  |  | IC50 [2]: 21 nM; IC50 [3]: 6 nM; efflux ratio ([1]; Assay C, permeability B-A/permeability A-B, read-out: Efflux Ratio): 0.8; Papp A→B ([1]; pH 7.2, Assay C, CACO-2 cells): 61 ×10⁻⁶ cm/s; n-fold induction of CYP3A4 at 10 μM (CYP3A4 mRNA): 58.5 n-fold; Mouse Hepatocyte Stability QH (murine hepatocytes): 97% |
| Cn1cnnc1C1(F)CCN(c2c(-c3cnc4nn(C(C)(C)C)cc4c3)ccc(C(F)(F)F)c2C#N)CC1 [Example 30 in EP 23161417.3] | 1.7 10^−6 cm/sec |  |  |
| Cn1cnnc1C1CCN(c2c(C#N)cccc2-c2ccnnc2)CC1 [Example 11 in WO 2024/020517] | 0.3 10^−6 cm/sec | 28.1 |  |
| Cn1cnnc1C1(F)CCN(c2c(C#N)cc(C(F)(F)F)cc2-c2ccc(F)nc2)CC1 [Example 4 in EP 23161417.3] | 40.5 10^−6 cm/sec |  |  |
